# In US20240018138A1, “PYRIDO[4,3-b]INDOLE DERIVATIVES AND THEIR USE AS PHARMACEUTICALS” (Ventus Therapeutics U.S., Inc., priority 2020, published 2024):
# Biological target: h-cGAS (Homo sapiens (Human), UniProt Q8N884)
# Assay: h-cGAS Kinase-Glo assay
# Format: biochemical
# Conditions: Kinase-Glo Max; 40 nM h-cGAS, 100 uM ATP, 100 uM GTP, 25 nM dsDNA, 2 h incubation
# Sequence of h-cGAS (Q8N884 whole entry): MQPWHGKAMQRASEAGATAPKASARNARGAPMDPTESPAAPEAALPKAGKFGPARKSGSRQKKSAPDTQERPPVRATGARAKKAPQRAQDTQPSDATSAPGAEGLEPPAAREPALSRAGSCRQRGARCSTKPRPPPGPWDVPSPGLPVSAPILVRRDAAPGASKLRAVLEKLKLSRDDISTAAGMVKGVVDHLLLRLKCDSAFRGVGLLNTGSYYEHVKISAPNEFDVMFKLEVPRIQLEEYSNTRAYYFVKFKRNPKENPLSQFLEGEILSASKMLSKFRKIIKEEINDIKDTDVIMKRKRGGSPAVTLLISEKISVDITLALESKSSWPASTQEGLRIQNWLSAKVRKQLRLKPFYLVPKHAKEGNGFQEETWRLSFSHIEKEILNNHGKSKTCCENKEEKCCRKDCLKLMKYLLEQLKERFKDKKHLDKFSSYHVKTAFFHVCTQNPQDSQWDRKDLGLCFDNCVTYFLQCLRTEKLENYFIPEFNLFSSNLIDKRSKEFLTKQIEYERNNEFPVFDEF
row,SMILES,IC50 [nM]
1,COCC(=O)N1[C@H](C)Cc2[nH]c3c(Cl)c(Cl)ccc3c2[C@@H]1C [Compound 104],51.7
2,COCC(=O)N1CCc2[nH]c3c(Cl)c(Cl)cc(-c4ccn(C)n4)c3c2[C@H]1C [Compound 105],3820
3,COCC(=O)N1CCc2[nH]c3c(Cl)c(Cl)cc(-c4ccn(C)n4)c3c2[C@@H]1C [Compound 106],4550
4,COCC(=O)N1CCc2[nH]c3c(Cl)c(F)ccc3c2[C@H]1C [Compound 107],51.8
5,COCC(=O)N1[C@@H](C)Cc2[nH]c3c(Cl)c(Cl)ccc3c2[C@@H]1C [Compound 108],62.3
6,COCC(=O)N1[C@H](C)Cc2[nH]c3c(Cl)c(Cl)ccc3c2[C@@H]1C [Compound 109],15.1
7,COCC(=O)N1Cc2c([nH]c3c(Cl)c(Cl)ccc23)C2CCCCC21 (centres unmarked) [Compound 110],2230
8,COCC(=O)N1Cc2c([nH]c3c(Cl)c(Cl)cc(-c4ccn(C)n4)c23)C[C@H]1C [Compound 116],157
9,COCC(=O)N1Cc2c([nH]c3c(Cl)c(Cl)cc(-c4ccn(C)n4)c23)C[C@@H]1C [Compound 117],221
10,COCC(=O)N1Cc2c([nH]c3c(F)c(Cl)ccc23)C[C@@H]1C [Compound 118],316
11,COCC(=O)N1Cc2c([nH]c3c(F)c(Cl)ccc23)C[C@H]1C [Compound 120],361
12,COCC(=O)N1Cc2c([nH]c3c(Br)c(Cl)ccc23)C[C@H]1C [Compound 121],7630
13,COCC(=O)N1Cc2c([nH]c3c(Cl)c(Br)ccc23)C[C@H]1C [Compound 122],205
14,COCC(=O)N1Cc2c([nH]c3c(Br)c(Cl)ccc23)C[C@@H]1C [Compound 123],133
15,COCC(=O)N1Cc2c([nH]c3c(F)c(Br)ccc23)C[C@H]1C [Compound 126],387

# The remaining lines, values ahead:
row,IC50 [nM],SMILES
1,401,COCC(=O)N1Cc2c([nH]c3c(Cl)c(Cl)ccc23)C[C@@H]1C [Compound 111]
2,236,COCC(=O)N1Cc2c([nH]c3c(Cl)c(Cl)ccc23)C[C@H]1C [Compound 112]
3,4230,COCC(=O)N1Cc2c([nH]c3c(Cl)c(Cl)ccc23)CC1Cc1ccccc1 (centres unmarked) [Compound 113]
4,718,COCC(=O)N1Cc2c([nH]c3c(Cl)c(Cl)ccc23)C[C@@H]1C(C)C [Compound 114]
5,1380,COCC(=O)N1Cc2c([nH]c3c(Cl)c(Cl)ccc23)C[C@H]1C(F)(F)F [Compound 115]
6,470,CC[C@H]1Cc2[nH]c3c(Cl)c(Cl)ccc3c2CN1C(=O)COC [Compound 119]
7,1330,COCC(=O)N1Cc2c([nH]c3c(Cl)c(F)ccc23)C[C@H]1C [Compound 124]
8,756,COCC(=O)N1Cc2c([nH]c3c(Cl)c(C)ccc23)C[C@@H]1C [Compound 125]
